How the values were obtained:
[1] = in vitro spectrophotometric determination of solar protection parameters of standard formulations (Diffey and Robson); conditions: standard formulation containing the compound at 3%
Source text: Determining the UVA/UVB ratio is a parameter that is mostly independent from the SPF value that provides a clear indication of the protective power of the solar product against UVA rays. According to the Boots scale, when the value of such a ratio is comprised between 0.6 and 0.8 the product offers a high UVA protection, when the value is greater than 0.8 the UVA protection is considered to be its maximum.
The critical λ is an important instrumental parameter for evaluating the protective power of the solar product against UVA rays: when the critical λ is greater than 370 nm the product offers protection over a wide spectrum.
Determining the solar protection parameters was carried out through in vitro tests that foresee the use of spectrophotometric techniques, according to the international protocol Diffey and Robson (B. L. Diffey, J. Robson, J. Soc. Cosm. Chem., 1989, 40: 127-133).
As well as 2-phenyl-1H-benzimidazole-5-sulfonic acid, as reference product with which to compare the data a commercial filter (Neo Heliopan® AP) was also used, known to be a water-soluble exclusively UVA filter with critical λ greater than 370 nm. The results of some standard formulations containing a compound according to the present invention are given as an example in table 3.
(§1) Standard Formulation 3% Prepared at pH 7.2-7.6

[2] = PCL analysis of anti-oxidant activity of standard formulations; format: biochemical; conditions: standard formulation containing the compound at 3%
Source text: (§2) In particular, the DPPH test, based on the measurement of the reducing activity of anti-oxidant molecules against the radical DPPH (2,2-diphenyl-1-picrylhydrazyl), the FRAP (Ferric Reducing/Antioxidant Power) test, which measures the ability of an anti-oxidant to reduce the Fe^3+ ions to Fe^2+ ions in acid conditions and in the presence of TPTZ (2,4,6-tripyridyl-triazine) and PCL (Photochemiluminescence) analysis, which allows measurement of the inhibition by the anti-oxidants of photo-induced auto-oxidation of the luminol promoted by the superoxide anion, were used.
We then proceeded to measure the anti-oxidant activity through PCL analysis of the standard formulations containing a compound according to the present invention at the concentration of 3%. Such an anti-oxidant activity was measured in order to compare it with the reference molecules.
as §1

[3] = maximum wavelength absorbable (λ max), UV absorption; format: physicochemical; conditions: for λ max: pH between 7.4 and 8 in a phosphate buffer
Protocol: Moreover, the compound object of the present invention recorded a significant increase in the maximum wavelength absorbable (λ max) with respect to 2-phenyl-1H-benzimidazole-5-sulfonic acid, which has been taken as reference.
Some examples are given in table 2, in which the λ max were measured at pH comprised between 7.4 and 8 in a phosphate buffer.
In 5 ml of ethanol 100 mg of 3,4-diamine-benzenesulfonic acid sulfate salt (0.35 mmol), 48 mg of 3,4 dihydroxybenzaldehyde (0.35 mmol) and 0.7 ml of sodium bisulfite solution 1N (0.7 mmol) were mixed. The reaction mixture was placed at 80° C. for 24 hours. After having evaporated the solvents, the raw product was treated with 5 ml of solution 5M of HCl. The precipitate was then filtered and the product recrystallized from methanol.

[4] = FRAP (Ferric Reducing/Antioxidant Power) test; format: biochemical; conditions: anti-oxidant activity, Trolox equivalents; acid conditions, TPTZ
Protocol: (§3) The compound object of the present invention was tested through different in vitro tests that complement one another, in order to evaluate its ability to counteract different radical species.
as §2
(§4) In table 1, in which the values are expressed in μmol Trolox/mmol compound, some examples are given.

[5] = DPPH test: reducing activity of anti-oxidant molecules against the radical DPPH; format: biochemical; conditions: Trolox equivalents
Protocol: as §3, §2, §4

[6] = PCL (Photochemiluminescence) analysis of the compounds; format: biochemical; conditions: anti-oxidant activity, Trolox equivalents; photo-induced auto-oxidation of luminol
Protocol: as §3, §2, §4

[7] = known property of the commercial filter; cited from earlier work

| λ max [3] [nm] | maximum absorption in the UV region ([3]; product of Example 1, medium not stated) [nm] | SMILES | SPF [1] | UVA/UVB (ratio between UVA absorbance and UVB absorbance) [1] | λ critical [1] [nm] | anti-oxidant activity through PCL analysis [2] | FRAP [4] [μmol Trolox/mmol compound] | DPPH [5] [μmol Trolox/mmol compound] | PCL [6] [μmol Trolox/mmol compound] | critical λ [7] |
| --- | --- | --- | --- | --- | --- | --- | --- | --- | --- | --- |
| 317 |  | O=C(O)c1ccc2[nH]c(-c3ccc(O)c(O)c3)nc2c1 [2-(3,4-Dihydroxy-phenyl)-1H-benzoimidazole-5-carboxylic acid] | 9.82 ± 1.30 | 1.21 ± 0.04 | 369.5 | 383 ± 18 μmol Trolox/g cosmetic formulation | 1803 ± 22 | 1772 ± 75 | 22014 ± 360 |  |
| 312.5 |  | O=C(O)c1ccc2[nH]c(-c3ccc(O)cc3)nc2c1 [2-(4-Hydroxy-phenyl)-1H-benzoimidazole-5-carboxylic acid] | 8.42 ± 1.55 | 0.89 ± 0.05 | 350 | 0.16 ± 0.02 μmol Trolox/g cosmetic formulation | 2.62 ± 0.06 | 1.19 ± 0.02 | 7 ± 0.3 |  |
| 321.5 |  | O=C(O)c1ccc2[nH]c(-c3ccc(O)cc3O)nc2c1 [2-(2,4-Dihydroxy-phenyl)-1H-benzoimidazole-5-carboxylic acid] | 4.70 ± 0.62 | 1.48 ± 0.03 | 369.5 | 4.97 ± 0.17 μmol Trolox/g cosmetic formulation | 31.6 ± 1.7 | 32.2 ± 2.1 | 160 ± 4 |  |
| 311 |  | Oc1ccc(-c2nc3ccccc3[nH]2)cc1O [2-(3,4-Dihydroxy-phenyl)-1H-benzimidazole] | 7.07 ± 1.36 | 0.93 ± 0.02 | 367.5 | 760 ± 5 μmol Trolox/g cosmetic formulation | 2523 ± 29 | 1975 ± 15 | 27442 ± 329 |  |
| 313.5 | 313 | O=S(=O)(O)c1ccc2[nH]c(-c3ccc(O)c(O)c3)nc2c1 [2-(3,4-dihydroxy-phenyl)-1H-benzoimidazole-5-sulfonic acid] | 13.36 ± 2.20 | 0.88 ± 0.04 | 358.5 | 725 ± 3 μmol Trolox/g cosmetic formulation | 2313 ± 26 | 2145 ± 40 | 27855 ± 764 |  |
|  |  | O=S(=O)([O-])c1cc(S(=O)(=O)O)cc2[nH]c(-c3ccc(-c4nc5c(S(=O)(=O)[O-])cc(S(=O)(=O)O)cc5[nH]4)cc3)nc12.[Na+].[Na+] [Neo Heliopan ® AP, reference compound] | 4.59 ± 0.37 | 2.46 ± 0.12 | 371 | 0 μmol Trolox/g cosmetic formulation |  |  |  | greater than 370 nm |

| SMILES | λ max [3] [nm] | maximum absorption in the UV region ([3]; product of Example 1, medium not stated) [nm] | SPF [1] | UVA/UVB (ratio between UVA absorbance and UVB absorbance) [1] | λ critical [1] [nm] | anti-oxidant activity through PCL analysis [2] | FRAP [4] [μmol Trolox/mmol compound] | DPPH [5] [μmol Trolox/mmol compound] | PCL [6] [μmol Trolox/mmol compound] | critical λ [7] |
| --- | --- | --- | --- | --- | --- | --- | --- | --- | --- | --- |
| O=S(=O)(O)c1ccc2[nH]c(-c3ccccc3)nc2c1 [2-phenyl-1H-benzimidazole-5-sulfonic acid, reference compound] | 302.5 |  | 6.33 ± 1.24 | 0.31 ± 0.06 | 333 | 0 μmol Trolox/g cosmetic formulation | 0.79 ± 0.05 | 4.40 ± 0.03 | <0 |  |
| Oc1ccc(-c2nc3ccccc3[nH]2)c(O)c1 [2-(2,4-Dihydroxy-phenyl)-1H-benzimidazole] | 315.5 |  | 4.85 ± 0.71 | 1.31 ± 0.04 | 379.5 | 8.66 ± 0.04 μmol Trolox/g cosmetic formulation | 37.3 ± 0.3 | 16.5 ± 0.5 | 198 ± 3 |  |

Source: patent publication US20140363386A1, “DUALISTIC MOLECULES HAVING UV RADIATION FILTRATING ABILITY AT WIDE SPECTRUM AND POTENT DAMPING ACTIVITY OF THE REACTIVITY OF FREE RADICALS (RADICAL SCAVENGING)” (UNIVERSITA DEGLI STUDI FERRARA, priority 2012, published 2014)
